According to patent EP0744402B1, “POTASSIUM SALT OF BIPHENYLMETHANE DERIVATIVE AND MEDICINE CONTAINING THE SAME” (priority 1994, dated 1995):
Counter-ions that a name gives are not always drawn.

Legend:
[1] = Measurement of bioavailability in rat; format: in vivo; conditions: SD male rats, fasted overnight, 3 mg/kg intravenously (physiological saline) and orally (0.5% carboxymethyl cellulose), from plasma AUC by HPLC
Method: Measurement of bioavailability in rat
SD Male rats of 6 weeks old (5 rats a group) were fasted overnight. The test compound was then administered to each of the rats at 3 mg/kg intravenously after dissolved in physiological saline and orally after suspended in 0.5% carboxymethyl cellulose, respectively. After administration, blood was collected periodically. From the blood so collected, plasma was separated by centrifugation. The test compound in the plasma was determined by high-performance liquid chromatography and based on it, areas under concentration (AUC) in intravenous administration and oral administration were found respectively. Bioavailability (BA) of the test compound for the rats was calculated in accordance with the following equation.

renal hypertensive rats = test: Antihypertensive action on renal hypertensive rats (invasive); format: in vivo, rat; conditions: male SD renal hypertensive rats, mean blood pressure, orally 0.3 mg/kg, suspended in 0.5% carboxymethyl cellulose
From the text: Antihypertensive action on renal hypertensive rats (invasive)
Renal hypertensive rats were each prepared by constricting the left renal artery of a male SD rat (age: 6 weeks old, body weight: 190-220 g) with a silver clip (inner diameter: 0.017 inch) under anesthesia. Antihypertensive action was studied employing the rats whose mean blood pressure arose to 150 mmHg or higher in 4-8 weeks after the constriction of the renal artery. On the day before the test, a cannula for measure of blood pressure was inserted into the femoral artery of each of the renal hypertensive rats under anesthesia and was allowed to remain in the artery. The rats were maintained on food and water ad libitum until immediately before the test was started. The cannula so inserted was connected to a blood pressure transducer and a mean blood pressure was recorded on a polygraph. After the blood pressure became stable, the test compound which was suspended in 0.5% carboxymethyl cellulose was orally administered to each of the rats at 0.3 mg/kg. In accordance with the following equation, a decreased rate of blood pressure (%) was calculated from the blood pressure values before and after the administration of the test compound.

angiotensin II = test: Inhibition of the angiotensin II-induced blood pressure increase in conscious normotensive rats after oral administration (invasive); format: in vivo, rat; conditions: male SD rats; angiotensin II intravenously 0.1 µg/kg; test compound orally 1.0 mg/kg in 0.5% carboxymethyl cellulose
Method: On the day before the test, a cannula for the measurement of blood pressure and another cannula for the administration of a solution of angiotensin II (AII) in physiological saline (intravenously administered at 0.1 µg/kg) were inserted into the right femoral artery and the right femoral vein of each of the male SD rats (body weight: 200-350 g), respectively, under anesthesia. The rats were maintained on food and water ad libitum until immediately before the test was started. On the testing day, the former cannula so inserted was connected to a blood pressure transducer and the mean blood pressure was recorded on a polygraph. The solution of AII in physiological saline was then intravenously administered to each of the rats to raise its blood pressure. The blood-pressure raising response was repeated several times. […] In accordance with the following equation, an inhibitory rate (%) of blood pressure increase was calculated from the blood pressure increases before and after the administration of the test compound.

CCc1nn(Cc2ccc(-c3ccccc3-c3nnn[nH]3)cc2)c(=NC(=O)C2=C(C(=O)O)CCC2)s1 [Compound (2), 2-[[5-Ethyl-3-[2'-(1H-tetrazol-5-yl)biphenyl-4-yl]methyl-1,3,4-thiadiazolin-2-ylidene]aminocarbonyl]-1-cyclopentenecarboxylic acid]
BA (%) [1]: 12.0% | Rate of decrease in blood pressure (renal hypertensive rats): 10.8% | Inhibition of blood pressure increase (%) (angiotensin II): 54.2%

CCc1nn(Cc2ccc(-c3ccccc3-c3nnn[nH]3)cc2)c(=NC(=O)C2=C(C(=O)O)CCC2)s1 [Compound A, dipotassium 2-[[5-ethyl-3-[2'-(1H-tetrazol-5-yl)biphenyl-4-yl]methyl-1,3,4-thiadiazolin-2-ylidene]aminocarbonyl]-1-cyclopentenecarboxylate]
BA (%) [1]: 42.8% | Rate of decrease in blood pressure (renal hypertensive rats; 0.3 mg/kg): 23.0% | Inhibition of blood pressure increase (%) (angiotensin II): 84.6%

CCc1nn(Cc2ccc(-c3ccccc3-c3nnn[nH]3)cc2)c(=NC(=O)C2=C(C(=O)[O-])CCC2)s1.[K+] [Compound B, monopotassium 2-[[5-ethyl-3-[2' -(1H-tetrazol-5-yl)biphenyl-4-yl]methyl-1,3,4-thiadiazolin-2-ylidene]aminocarbonyl]-1-cyclopentenecarboxylate]
Rate of decrease in blood pressure (renal hypertensive rats): 19.8%

CCc1nn(Cc2ccc(-c3ccccc3-c3nn[nH]n3)cc2)c(=NC(=O)C2=C(C(=O)O)CCC2)s1 [Control 2Na salt, reference compound]
Rate of decrease in blood pressure (renal hypertensive rats; 0.3 mg/kg): 12.9%
